Results published in patent publication US4110327A, “2,3 Diketo-piperazinocarbonylamino alkanoic acids and derivatives” (Toyama Chemical Co., Ltd., priority 1974, dated 1978).
Values after ≈ are worked out from the molar mass of the structure shown.

Legend:
Format in all cases: cell-based
[1] = tested on: Escherichia coli NIHJ; assay: MIC against standard strain, plate method; details: unit assumed
How it was run: (§1)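 Agar plate dilution MIC in heart infusion agar, pH 7.4. Inoculum was 10^4 cells per plate, from a suspension of 10^6 cells/ml.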

[2] = tested on: Klebsiella pneumoniae; assay: MIC against standard strain, plate method; details: unit assumed
How it was run: as §1

[3] = tested on: Proteus vulgaris 3027; assay: MIC against standard strain, plate method; details: Proteus vulgaris 3027, standard strain; unit assumed
How it was run: as §1

[4] = tested on: Pseudomonas aeruginosa I.F.O.; assay: MIC against standard strain, plate method; details: unit assumed
How it was run: as §1

[5] = tested on: Staphylococcus aureus 209p; assay: MIC against standard strain, plate method; details: unit assumed
How it was run: as §1

[6] = tested on: Staphylococcus aureus; assay: MIC against clinical isolates; details: unit assumed
[7] = tested on: Pseudomonas aeruginosa; assay: MIC against clinical isolates; details: unit assumed
[8] = tested on: Klebsiella pneumoniae; assay: MIC against clinical isolates; details: unit assumed
[9] = tested on: Shigella flexneri; assay: MIC against clinical isolates; details: unit assumed
Protocol: (§2) The minimum inhibitory concentrations (MIC) was determined by the plate method disclosed in "Chemotherapy" (Japan), Vol. 16, (1968), pages 98 - 99. The culture medium used was a Heart infusion agar (pH 7.4). The number of the cells per plate used in the inoculum as 10^4 (10^6 cells/ml).
(§3) MIC was determined in the same manner as in the preceding paragraph (1).

[10] = tested on: Shigella sonnei; assay: MIC against clinical isolates; details: unit assumed
Protocol: as §2, §3

[11] = tested on: Salmonella typhi; assay: MIC against clinical isolates; details: unit assumed
[12] = tested on: Salmonella typhi-murium; assay: MIC against clinical isolates; details: unit assumed
[13] = tested on: Escherichia coli; assay: MIC against clinical isolates; details: unit assumed

## CN1CCN(C(=O)N[C@@H](C(=O)N[C@@H]2C(=O)N3C(C(=O)[O-])=C(C[n+]4ccccc4)CS[C@H]23)c2ccccc2)C(=O)C1=O [compound 68]
[1]
  MIC: < 0.79 mg/L
[2]
  MIC: < 0.79 mg/L
[3]
  MIC: 1.57 mg/L (≈ 2.71 µM)
[4]
  MIC: 12.5 mg/L (≈ 21.6 µM)
[5]
  MIC: 1.57 mg/L (≈ 2.71 µM)
[6]; clinical isolate F-1
  MIC: 1.56 mg/L (≈ 2.7 µM)
[6]; clinical isolate F-2
  MIC: 1.56 mg/L (≈ 2.7 µM)
[6]; clinical isolate F-3
  MIC: 0.78 mg/L (≈ 1.35 µM)
[6]; clinical isolate F-4
  MIC: 6.25 mg/L (≈ 10.8 µM)
[6]; clinical isolate F-5
  MIC: 0.78 mg/L (≈ 1.35 µM)
[6]; clinical isolate MS 8588
  MIC: 1.56 mg/L (≈ 2.7 µM)
[6]; clinical isolate MS 8596
  MIC: 1.56 mg/L (≈ 2.7 µM)
[6]; clinical isolate MS 8619
  MIC: 0.78 mg/L (≈ 1.35 µM)
[6]; clinical isolate MS 8684
  MIC: 1.56 mg/L (≈ 2.7 µM)
[6]; clinical isolate MS 8713
  MIC: 3.13 mg/L (≈ 5.41 µM)
[7]; clinical isolate GN 82
  MIC: 6.25 mg/L (≈ 10.8 µM)
[7]; clinical isolate GN 163
  MIC: 12.5 mg/L (≈ 21.6 µM)
[7]; clinical isolate GN 221
  MIC: 3.13 mg/L (≈ 5.41 µM)
[7]; clinical isolate GN 244
  MIC: 25 mg/L (≈ 43.2 µM)
[7]; clinical isolate GN 376
  MIC: 12.5 mg/L (≈ 21.6 µM)
[7]; clinical isolate GN 383
  MIC: 12.5 mg/L (≈ 21.6 µM)
[7]; clinical isolate GN 1035
  MIC: 50 mg/L (≈ 86.4 µM)
[7]; clinical isolate GN 1091
  MIC: 12.5 mg/L (≈ 21.6 µM)
[7]; clinical isolate GN 2565
  MIC: 50 mg/L (≈ 86.4 µM)
[7]; clinical isolate GN 2987
  MIC: 12.5 mg/L (≈ 21.6 µM)
[7]; clinical isolate S-1
  MIC: 25 mg/L (≈ 43.2 µM)
[7]; clinical isolate S-2
  MIC: 25 mg/L (≈ 43.2 µM)
[7]; clinical isolate S-3
  MIC: 25 mg/L (≈ 43.2 µM)
[7]; clinical isolate S-4
  MIC: 25 mg/L (≈ 43.2 µM)
[8]; clinical isolate GN 917
  MIC: 1.56 mg/L (≈ 2.7 µM)

## CC1(C)S[C@@H]2[C@H](NC(=O)C(c3ccccc3)S(=O)(=O)O)C(=O)N2[C@H]1C(=O)O (stereo partly shown) [Sodium Sulbenicillum, reference compound]
[9]; clinical isolate JS 11215
  MIC: > 200 mg/L
[9]; clinical isolate JS 11839
  MIC: 12.5 mg/L
[10]; clinical isolate JS 11232
  MIC: > 200 mg/L
[10]; clinical isolate JS 11755
  MIC: > 200 mg/L
[11]; clinical isolate SL 819
  MIC: 6.25 mg/L
[11]; clinical isolate SL 2169
  MIC: 1.57 mg/L
[12]; clinical isolate SL 858
  MIC: 25 mg/L
[12]; clinical isolate SL 2136
  MIC: > 200 mg/L

## CC(=O)OCC1=C(C(=O)O)N2C(=O)[C@@H](NC(=O)Cc3cccs3)[C@H]2SC1 [Sodium Cephalothin, SodiumCephalothin, reference compound]
[1]
  MIC: < 1.57 mg/L
[2]
  MIC: 100 mg/L
[3]
  MIC: < 1.57 mg/L
[4]
  MIC: > 200 mg/L
[5]
  MIC: < 1.57 mg/L
[6]; clinical isolate F-1
  MIC: < 0.4 mg/L
[6]; clinical isolate F-2
  MIC: < 0.4 mg/L
[6]; clinical isolate F-3
  MIC: < 0.4 mg/L
[6]; clinical isolate F-4
  MIC: < 0.4 mg/L
[6]; clinical isolate F-5
  MIC: 1.56 mg/L
[6]; clinical isolate MS 8588
  MIC: < 0.4 mg/L
[6]; clinical isolate MS 8596
  MIC: < 0.4 mg/L
[6]; clinical isolate MS 8619
  MIC: < 0.4 mg/L
[6]; clinical isolate MS 8684
  MIC: < 0.4 mg/L
[6]; clinical isolate MS 8713
  MIC: < 0.4 mg/L
[13]; clinical isolate GN 3435
  MIC: 6.25 mg/L
[13]; clinical isolate GN 3452
  MIC: 12.5 mg/L
[13]; clinical isolate GN 3465
  MIC: 25 mg/L
[13]; clinical isolate GN 3481
  MIC: 12.5 mg/L
[13]; clinical isolate GN 3611
  MIC: 50 mg/L
[13]; clinical isolate K-1
  MIC: 6.25 mg/L
[13]; clinical isolate K-2
  MIC: 6.25 mg/L
[13]; clinical isolate K-3
  MIC: 100 mg/L
[13]; clinical isolate K-4
  MIC: 25 mg/L
[7]; clinical isolate GN 82
  MIC: > 200 mg/L
[7]; clinical isolate GN 163
  MIC: > 200 mg/L
[7]; clinical isolate GN 221
  MIC: > 200 mg/L
[7]; clinical isolate GN 244
  MIC: > 200 mg/L
[7]; clinical isolate GN 376
  MIC: > 200 mg/L
[7]; clinical isolate GN 383
  MIC: > 200 mg/L
[7]; clinical isolate GN 1035
  MIC: > 200 mg/L
[7]; clinical isolate GN 1091
  MIC: > 200 mg/L
[7]; clinical isolate GN 2565
  MIC: > 200 mg/L
[7]; clinical isolate GN 2987
  MIC: > 200 mg/L
[7]; clinical isolate S-1
  MIC: > 200 mg/L
[7]; clinical isolate S-2
  MIC: > 200 mg/L
[7]; clinical isolate S-3
  MIC: > 200 mg/L
[7]; clinical isolate S-4
  MIC: > 200 mg/L
[8]; clinical isolate GN 917
  MIC: 3.13 mg/L
[8]; clinical isolate GN 4081
  MIC: 12.5 mg/L
[8]; clinical isolate GN 4117
  MIC: 6.25 mg/L
